Experimental data from patent US7579324B2, “Conjugates of biologically active compounds, methods for their preparation and use, formulation and pharmaceutical applications thereof” (c-a-i-r biosciences GmbH, priority 2002, dated 2009).

Test system: HeLa or JURKAT cells
Assay: Cytotoxicity assay (Alamar Blue) with guanosine rescue
Format: cell-based
Procedure: HeLa cells (DSMZ, ACC 57) and Jurkat cells (DSMZ, ACC 282) in exponential growth phase are exposed for 3 days to test compounds. The number of surviving cells is then determined by the Alamar Blue assay (Serotec Inc.). This assay incorporates a fluorometric growth indicator based on detection of metabolic activity. Specifically, the system incorporates an oxidation-reduction indicator that fluoresces in response to chemical reduction of the growth medium resulting from cell growth. As cells grow in culture, innate metabolic activity results in a chemical reduction of the immediate surrounding environment. Continued growth maintains a reduced environment while inhibition of growth maintains an oxidized environment. […] Fluorescence is monitored at 560 nm (Exc.) and 590 nm Em.
HeLa cells (1×10^3) or JURKAT cells (1×10^3) are plated in 100 μl MEM medium (with Earle's salt; Biochrom KG) containing 10% FBS, 2 mM L-glutamine, and non-essential animo acids in 96-well plates and incubated at 37° C. and 5% CO2 atmosphere. […] The fluorescence is then measured as described above and the LD50 is determined based on a sigmoidal dose response regression. […] Any toxicity still detected can then be ascribed either to other biological effects of the of T—L—C conjugate of mycophenolic acid, or is due to the very high intracellular concentration of mycophenolic acid, following concentrative uptake into the cell.

What does the source list for `COc1c(C)c2c(c(O)c1C/C=C(\C)CCC(=O)O)C(=O)OC2` [Mycophenolic acid]?
effect in the presence of guanosine (50 μM guanosine in culture medium): completely removed; IC50 (normal culture conditions, HeLa or JURKAT): < 2 µM
